# Assay results: patent US12729377B2, “RNAi agents and compositions for inhibiting expression of angiopoietin-like 3 (ANGPTL3), and methods of use” (Arrowhead Pharmaceuticals, Inc., priority 2017, dated 2026)
# In the oligonucleotide strings, read from the 5' end, every base follows the letter of its sugar. An asterisk marks phosphorothioate; unmarked linkages are phosphodiester. Other units and linkages are bracketed, terminal groups are in braces. A string of capitals states the bases alone. {NAG37} = tridentate N-acetyl-galactosamine targeting ligand, structure (NAG37)s; [invAb] = inverted abasic unit; m = 2'-O-methyl; f = 2'-fluoro
# How the values were obtained:
# ANGPTL3 protein = test: Example 9: serum ANGPTL3 protein by ELISA in cynomolgus monkeys; assay type: in vivo, cynomolgus macaque (Macaca fascicularis); conditions: for Average ANGPTL3 Protein Normalized to Pre-Treatment: 2.0 mg/kg single SC injection day 1, cynos, n=3
# Description: (§1) Additional ANGPTL3 RNAi agents were evaluated in cynomolgus monkeys. On day 1, cynomolgus macaque (Macaca fascicularis) primates (also referred to herein as “cynos”) were administered a single subcutaneous injection of 0.3 mL/kg (approximately 2-3 mL volume, depending on animal mass) containing 2.0 mg/kg of an ANGPTL3 RNAi agent, which included either AD05488, AD05743, AD05775, or AD05841, each formulated in saline. […] ANGPTL3 RNAi agents AD05488, AD05743, and AD05775 included nucleotide sequences designed to target position 304 of the ANGPTL3 gene. ANGPTL3 RNAi agent AD05841 included nucleotide sequences designed to target position 1035 of the ANGPTL3 gene.
# (§2) Three (3) cynos in each group were tested (n=3). Blood samples were drawn and serum samples were analyzed on days −14 (predose), −7 (predose), 1 (pre-dose), 8, 15, 22, 29, and 35. Cynos were fasted overnight prior to each collection. ANGPTL3 protein levels in serum were measured by ELISA assay (R&D Systems), according to the manufacturer's recommendations. Triglycerides, total cholesterol, high-density lipoprotein (HDL), and low-density lipoprotein (LDL) in serum were measured on a Cobas® Integra 400 (Roche Diagnostics), according to the manufacturer's recommendations.
# (§3) The ANGPTL3 protein levels, triglyceride levels, total cholesterol levels, HDL levels, and LDL levels for each animal were normalized. For normalization, the level of ANGPTL3 protein, triglyceride, HDL, and total cholesterol, respectively, for each animal at a time point, was divided by the average pre-treatment level of expression in that animal (in this case at days −14, −7, and 1) to determine the ratio of expression “normalized to pre-treatment.”
# ANGPTL3 gene [1] = test: Example 9: serum LDL in cynomolgus monkeys; assay type: in vivo, cynomolgus macaque (Macaca fascicularis); conditions: 2.0 mg/kg single SC injection day 1, cynos, n=3
# Description: as §1, §2, §3
# ANGPTL3 gene [2] = test: Example 12: serum total cholesterol in LDLR knockout mice; assay type: in vivo, LDLR KO mice
# From the text: (§4) To evaluate the effect of RNAi agent administration in a disease model, mice having a genetic mutation for the LDL receptor (referred to herein as LDLR KO mice) were commercially obtained (The Jackson Laboratory). The LDLR KO mice are homozygous for the Ldlr^tm1Her mutation, and have elevated serum cholesterol levels, particularly when placed on a high fat diet. For three weeks prior to the onset of the study, thirty-nine (39) LDLR KO mice were placed on a high fat diet (Teklad Custom Diets TD.88137). An additional eight (8) LDLR KO mice were placed on a normal chow diet over the same three-week period. Pre-dose serum samples were taken on day −15 and day −1 after a four hour fast. At day 1, each mouse was given a single subcutaneous administration of 200 μl/30 g animal body weight containing the respective mg/kg dose of an ANGPTL3 RNAi agent in D5W (dextrose in 5% water), control (D5W) with no RNAi agent, or a control RNAi agent that included a nucleotide sequence designed to target the Hepatitis B Virus (HBV) genome. A second injection of the same formulation was administered to the animals on day 29. The dosing regimen for the study is recited in the following Table 60:
# (§5) Each mouse remained on its respective diet through the duration of study. The RNAi agent tested (AD05488) included a modified sequence and an N-acetyl-galactosamine-containing targeting ligand conjugated to the 5′ terminal end of the sense strand. (See Tables 3, […] modified sequences and targeting ligand structures). The injections were performed between the skin and muscle (i.e. subcutaneous injections) into the loose skin over the neck and shoulder area. Serum was collected on days 8, 15, 22, 29 (pre-second dose), 36, 43, 50, and 57. LDLR KO mice were fasted for four hours prior to each collection. On day 15, four (4) LDLR KO mice from Groups 1, 2, and 3 (i.e., the groups being administered the high fat “Western” diet) were sacrificed after serum collection, and on day 29, an additional four (4) LDLR KO mice from Groups 1, 2, and 3 were sacrificed after serum collection, for the purpose of performing mRNA assessments.
# (§6) ANGPTL3 protein levels in serum were measured by ELISA assay (R&D Systems), according to the manufacturer's recommendations. Triglycerides, total cholesterol, high-density lipoprotein (HDL), and low-density lipoprotein (LDL) in serum were measured on a Cobas® Integra 400 (Roche Diagnostics), according to the manufacturer's recommendations.
# (§7) The ANGPTL3 protein levels, triglyceride levels, total cholesterol levels, HDL levels, and LDL levels for each animal were normalized. For normalization, respective levels of ANGPTL3 protein, TG, total cholesterol, HDL, or LDL for each animal at a time point was divided by the average pre-treatment level of expression in that animal (in this case the average of day −15 and day −1) to determine the ratio of expression “normalized to pre-treatment.”
# (§8) Expression at a specific time point was then normalized to the D5W control group that was administered the same diet (i.e., either the high fat “Western” diet or the normal chow-fed diet) by dividing the “normalized to pre-treatment” ratio for an individual animal by the mean “normalized to pretreatment” ratio of all mice in the D5W control group on the respective same diet, resulting in expression for each time point normalized to that in the control group.
# ANGPTL3 gene [3] = test: Example 12: serum LDL in LDLR knockout mice; assay type: in vivo, LDLR KO mice; conditions: 3.0 mg/kg sc day 1
# From the text: as §4, §5, §6, §7, §8
substance,measurement,setting,value
"AD05488: RNAi agent duplex: antisense AM07235-AS, sense AM07234-SS (antisense mU*fA*mC*fUmGfAmUfCmAfAmAfUmAfUmGfUmUfGmAfG*mC; sense {NAG37}*[invAb]*mGmCmUmCmAmAmCmAfUfAfUmUmUmGmAmUmCmAmGmUmA*[invAb])",Average ANGPTL3 Protein Normalized to Pre-Treatment,ANGPTL3 protein; Day 8,0.232
same,Average ANGPTL3 Protein Normalized to Pre-Treatment,ANGPTL3 protein; Day 15,0.240
same,Average ANGPTL3 Protein Normalized to Pre-Treatment,ANGPTL3 protein; Day 22,0.239
same,Average ANGPTL3 Protein Normalized to Pre-Treatment,ANGPTL3 protein; Day 29,0.258
same,Average ANGPTL3 Protein Normalized to Pre-Treatment,ANGPTL3 protein; Day 35,0.332
same,reduction in ANGPTL3 protein compared to pre-treatment,"ANGPTL3 protein; each of the measured time points, single 2.0 mg/kg subcutaneous, cynomolgus monkeys",reduction
same,Average LDL Normalized to Pre-Treatment,ANGPTL3 gene [1]; Day 8,0.971
same,Average LDL Normalized to Pre-Treatment,ANGPTL3 gene [1]; Day 15,0.913
same,Average LDL Normalized to Pre-Treatment,ANGPTL3 gene [1]; Day 22,0.949
same,Average LDL Normalized to Pre-Treatment,ANGPTL3 gene [1]; Day 29,0.853
same,Average LDL Normalized to Pre-Treatment,ANGPTL3 gene [1]; Day 35,0.845
same,reductions in total cholesterol,"ANGPTL3 gene [2]; 3.0 mg/kg on days 1 and 29 (Groups 2 and 5), LDLR KO mice",significant reductions
same,Avg Total Chol Normalized to Pre-Treatment and Control (Diet Matched),"ANGPTL3 gene [2]; 3.0 mg/kg sc day 1, High Fat Diet, Day 8",0.524
same,Avg Total Chol Normalized to Pre-Treatment and Control (Diet Matched),"ANGPTL3 gene [2]; 3.0 mg/kg sc day 1, High Fat Diet, Day 15",0.438
same,Avg Total Chol Normalized to Pre-Treatment and Control (Diet Matched),"ANGPTL3 gene [2]; 3.0 mg/kg sc day 1, High Fat Diet, Day 22",0.410
same,Avg Total Chol Normalized to Pre-Treatment and Control (Diet Matched),"ANGPTL3 gene [2]; 3.0 mg/kg sc day 1, High Fat Diet, Day 29 (pre-second dose)",0.410
same,Avg Total Chol Normalized to Pre-Treatment and Control (Diet Matched),"ANGPTL3 gene [2]; 3.0 mg/kg sc day 1, Normal Diet, Day 8",0.645
same,Avg Total Chol Normalized to Pre-Treatment and Control (Diet Matched),"ANGPTL3 gene [2]; 3.0 mg/kg sc day 1, Normal Diet, Day 15",0.683
same,Avg Total Chol Normalized to Pre-Treatment and Control (Diet Matched),"ANGPTL3 gene [2]; 3.0 mg/kg sc day 1, Normal Diet, Day 22",0.691
same,Avg Total Chol Normalized to Pre-Treatment and Control (Diet Matched),"ANGPTL3 gene [2]; 3.0 mg/kg sc day 1, Normal Diet, Day 29 (pre-second dose)",0.636
same,Avg Total Chol Normalized to Pre-Treatment and Control (Diet Matched),"ANGPTL3 gene [2]; 3.0 mg/kg sc days 1 and 29, High Fat Diet, Day 36",0.438
same,Avg Total Chol Normalized to Pre-Treatment and Control (Diet Matched),"ANGPTL3 gene [2]; 3.0 mg/kg sc days 1 and 29, High Fat Diet, Day 43",0.363
same,Avg Total Chol Normalized to Pre-Treatment and Control (Diet Matched),"ANGPTL3 gene [2]; 3.0 mg/kg sc days 1 and 29, High Fat Diet, Day 50",0.374
same,Avg Total Chol Normalized to Pre-Treatment and Control (Diet Matched),"ANGPTL3 gene [2]; 3.0 mg/kg sc days 1 and 29, High Fat Diet, Day 57",0.341
same,Avg Total Chol Normalized to Pre-Treatment and Control (Diet Matched),"ANGPTL3 gene [2]; 3.0 mg/kg sc days 1 and 29, Normal Diet, Day 36",0.758
same,Avg Total Chol Normalized to Pre-Treatment and Control (Diet Matched),"ANGPTL3 gene [2]; 3.0 mg/kg sc days 1 and 29, Normal Diet, Day 43",0.657
same,Avg Total Chol Normalized to Pre-Treatment and Control (Diet Matched),"ANGPTL3 gene [2]; 3.0 mg/kg sc days 1 and 29, Normal Diet, Day 50",0.824
same,Avg Total Chol Normalized to Pre-Treatment and Control (Diet Matched),"ANGPTL3 gene [2]; 3.0 mg/kg sc days 1 and 29, Normal Diet, Day 57",0.684
same,Avg LDL Normalized to Pre-Treatment and Control (Diet Matched),"ANGPTL3 gene [3]; High Fat Diet, Day 8",0.547
same,Avg LDL Normalized to Pre-Treatment and Control (Diet Matched),"ANGPTL3 gene [3]; High Fat Diet, Day 15",0.476
same,Avg LDL Normalized to Pre-Treatment and Control (Diet Matched),"ANGPTL3 gene [3]; High Fat Diet, Day 22",0.429
same,Avg LDL Normalized to Pre-Treatment and Control (Diet Matched),"ANGPTL3 gene [3]; High Fat Diet, Day 29 (pre-second dose)",0.419
same,Avg LDL Normalized to Pre-Treatment and Control (Diet Matched),"ANGPTL3 gene [3]; Normal Diet, Day 8",0.558
same,Avg LDL Normalized to Pre-Treatment and Control (Diet Matched),"ANGPTL3 gene [3]; Normal Diet, Day 15",0.606
same,Avg LDL Normalized to Pre-Treatment and Control (Diet Matched),"ANGPTL3 gene [3]; Normal Diet, Day 22",0.662
same,Avg LDL Normalized to Pre-Treatment and Control (Diet Matched),"ANGPTL3 gene [3]; Normal Diet, Day 29 (pre-second dose)",0.563
